Mutagenic call data for 9 compounds are collected here from PubChem BioAssay AID1259407 (Chemical Carcinogenesis Research Information System (CCRIS), 2018).

Calls of active or inactive are those of the source. The rule behind the calls is not given here.

The test system of this series is CCRIS mutagenicity, Ames/micronucleus/aberration tests. The series can be described thus: CCRIS mutagenicity studies.
The mark [1] stands for this setting: Test System: AMES SALMONELLA TYPHIMURIUM, Strain/Indicator: TA98, Metabolic Activation: NONE, Method: STANDARD PLATE.
The mark [2] stands for this setting: Test System: AMES SALMONELLA TYPHIMURIUM, Strain/Indicator: TA98, Metabolic Activation: RAT, LIVER, S-9, AROCLOR 1254, Method: STANDARD PLATE.
[3] abbreviates: Test System: AMES SALMONELLA TYPHIMURIUM, Strain/Indicator: TA100, Metabolic Activation: NONE, Method: STANDARD PLATE.
The mark [4] stands for this setting: Test System: AMES SALMONELLA TYPHIMURIUM, Strain/Indicator: TA100, Metabolic Activation: NONE, Method: PREINCUBATION
Where [5] appears, read: Test System: AMES SALMONELLA TYPHIMURIUM, Strain/Indicator: TA98, Metabolic Activation: NONE, Method: PREINCUBATION
Setting [6] is: Test System: AMES SALMONELLA TYPHIMURIUM, Strain/Indicator: TA1535, Metabolic Activation: NONE, Method: PREINCUBATION

On to `Cc1ccncc1`, for which the mutagenic call is “inactive; negative” (Test System: AMES SALMONELLA TYPHIMURIUM, Strain/Indicator: TA97, Metabolic Activation: NONE, Method: STANDARD PLATE); “inactive; negative” (Test System: AMES SALMONELLA TYPHIMURIUM, Strain/Indicator: TA97, Metabolic Activation: RAT, LIVER, S-9, AROCLOR 1254, Method: STANDARD PLATE); “inactive; negative” under setting [1]; “inactive; negative” under setting [2]; “inactive; negative” under setting [3]; “inactive; negative” (Test System: AMES SALMONELLA TYPHIMURIUM, Strain/Indicator: TA100, Metabolic Activation: RAT, LIVER, S-9, AROCLOR 1254, Method: STANDARD PLATE). Further, the mutagenic call is, setting by setting: (Test System: AMES SALMONELLA TYPHIMURIUM, Strain/Indicator: TA102, Metabolic Activation: NONE, Method: STANDARD PLATE) “inactive; negative”; (Test System: AMES SALMONELLA TYPHIMURIUM, Strain/Indicator: TA102, Metabolic Activation: RAT, LIVER, S-9, AROCLOR 1254, Method: STANDARD PLATE) “inactive; negative”.

For `CCCOS(=O)(=O)c1ccccc1`, the mutagenic call reads like this: (End Point: IN VITRO MICRONUCLEUS, Test System: MOUSE LYMPHOMA L5178Y CELLS, Metabolic Activation: NONE) “inactive; negative; positive only at highly/excessively cytotoxic doses”; (End Point: IN VITRO MICRONUCLEUS, Test System: MOUSE LYMPHOMA L5178Y CELLS, Metabolic Activation: RAT, LIVER, S-9) “inactive; negative; authors report results as weakly positive”; under setting [3], “active; positive”; (Test System: AMES SALMONELLA TYPHIMURIUM, Strain/Indicator: TA100, Metabolic Activation: RAT, LIVER, S-9, Method: STANDARD PLATE) “active; positive”.

Take `COC(=O)CCCN(N=O)C(N)=O`: the mutagenic call is, setting by setting: (Test System: E. COLI B, Strain/Indicator: H/R30R, Metabolic Activation: NONE) “active; positive”; (Test System: E. COLI B, Strain/Indicator: HS30R, Metabolic Activation: NONE) “active; positive”.

As to `N[C@@H](CS/C(Cl)=C(\Cl)C(Cl)(Cl)Cl)C(=O)O`, the mutagenic call reads like this: under setting [4], “active; positive”; (Test System: AMES SALMONELLA TYPHIMURIUM, Strain/Indicator: TA100, Metabolic Activation: RAT, LIVER OR KIDNEY, MICROSOMES, Method: PREINCUBATION) “active; positive”.

Regarding `O=S(=O)(O)OCc1c2ccccc2cc2c1ccc1ccccc12`, the mutagenic call under setting [5] was “active; positive”.

On to `C[C@@H]1O[C@@H](OC[C@H]2O[C@@H](Oc3c(-c4ccc(O)c(O)c4)oc4cc(O)cc(O)c4c3=O)[C@H](O)[C@@H](O)[C@@H]2O)[C@H](O)[C@H](O)[C@H]1O`, for which the mutagenic call is, setting by setting: (Test System: Ames Salmonella typhimurium, Strain/Indicator: TA98, Metabolic Activation: None, Method: Standard plate) “inactive; negative”; (Test System: Ames Salmonella typhimurium, Strain/Indicator: TA98, Metabolic Activation: Rat, Liver, S-9, Aroclor 1254, Method: Standard Plate) “inactive; negative”.

For the compound `Cc1ccc(C)c(N)c1`, the mutagenic call is “inactive; negative” (Test System: AMES SALMONELLA TYPHIMURIUM, Strain/Indicator: TA97, Metabolic Activation: HAMSTER, LIVER, S-9, AROCLOR 1254 (10%), Method: PREINCUBATION); “inactive; negative” (Test System: AMES SALMONELLA TYPHIMURIUM, Strain/Indicator: TA97, Metabolic Activation: NONE, Method: PREINCUBATION); “inactive; negative” (Test System: AMES SALMONELLA TYPHIMURIUM, Strain/Indicator: TA97, Metabolic Activation: RAT, LIVER, S-9, AROCLOR 1254 (10%), Method: PREINCUBATION); “active; positive” (Test System: AMES SALMONELLA TYPHIMURIUM, Strain/Indicator: TA98, Metabolic Activation: HAMSTER, LIVER, S-9, AROCLOR 1254 (10%), Method: PREINCUBATION); “inactive; negative” under setting [5]; “active; positive” (Test System: AMES SALMONELLA TYPHIMURIUM, Strain/Indicator: TA98, Metabolic Activation: RAT, LIVER, S-9, AROCLOR 1254 (10%), Method: PREINCUBATION). Besides, the mutagenic call by setting is: (Test System: AMES SALMONELLA TYPHIMURIUM, Strain/Indicator: TA100, Metabolic Activation: HAMSTER, LIVER, S-9, AROCLOR 1254 (10%), Method: PREINCUBATION) “active; positive”; under setting [4], “inactive; negative”; (Test System: AMES SALMONELLA TYPHIMURIUM, Strain/Indicator: TA100, Metabolic Activation: RAT, LIVER, S-9, AROCLOR 1254 (10%), Method: PREINCUBATION) “inactive; negative”; (Test System: AMES SALMONELLA TYPHIMURIUM, Strain/Indicator: TA1535, Metabolic Activation: HAMSTER, LIVER, S-9, AROCLOR 1254 (10%), Method: PREINCUBATION) “inactive; negative”; under setting [6], “inactive; negative”; (Test System: AMES SALMONELLA TYPHIMURIUM, Strain/Indicator: TA1535, Metabolic Activation: RAT, LIVER, S-9, AROCLOR 1254 (10%), Method: PREINCUBATION) “inactive; negative”. The mutagenic call reads like this: (Test System: AMES SALMONELLA TYPHIMURIUM, Strain/Indicator: TA1537, Metabolic Activation: HAMSTER, LIVER, S-9, AROCLOR 1254 (10%), Method: PREINCUBATION) “active; positive”; (Test System: AMES SALMONELLA TYPHIMURIUM, Strain/Indicator: TA1537, Metabolic Activation: RAT, LIVER, S-9, AROCLOR 1254 (10%), Method: PREINCUBATION) “inactive; negative”.

As for `Oc1cc2c3ccccc3ccc2c2ccccc12`, the mutagenic call reads like this: under setting [1], “inactive; negative”; under setting [2], “inactive; negative”; under setting [3], “inactive; negative”.

`CC(C)(C)c1ccc(OCC2CO2)cc1` (stereo not drawn): the mutagenic call (Test System: AMES SALMONELLA TYPHIMURIUM, Strain/Indicator: TA98, Metabolic Activation: HAMSTER, LIVER, S-9, AROCLOR 1254 (30%), Method: PREINCUBATION) is “inactive; negative”; the mutagenic call under setting [5] is “inactive; negative”; the mutagenic call (Test System: AMES SALMONELLA TYPHIMURIUM, Strain/Indicator: TA98, Metabolic Activation: RAT, LIVER, S-9, AROCLOR 1254 (30%), Method: PREINCUBATION) is “inactive; negative”; the mutagenic call (Test System: AMES SALMONELLA TYPHIMURIUM, Strain/Indicator: TA100, Metabolic Activation: HAMSTER, LIVER, S-9, AROCLOR 1254 (30%), Method: PREINCUBATION) is “inactive; negative”; the mutagenic call under setting [4] is “active; positive”; the mutagenic call (Test System: AMES SALMONELLA TYPHIMURIUM, Strain/Indicator: TA100, Metabolic Activation: RAT, LIVER, S-9, AROCLOR 1254 (30%), Method: PREINCUBATION) was “inactive; negative”. For the same compound, the mutagenic call is “inactive; negative” (Test System: AMES SALMONELLA TYPHIMURIUM, Strain/Indicator: TA1535, Metabolic Activation: HAMSTER, LIVER, S-9, AROCLOR 1254 (30%), Method: PREINCUBATION); “inactive; negative” under setting [6]; “inactive; negative” (Test System: AMES SALMONELLA TYPHIMURIUM, Strain/Indicator: TA1535, Metabolic Activation: RAT, LIVER, S-9, AROCLOR 1254 (30%), Method: PREINCUBATION); “inactive; negative” (Test System: AMES SALMONELLA TYPHIMURIUM, Strain/Indicator: TA1537, Metabolic Activation: HAMSTER, LIVER, S-9, AROCLOR 1254 (30%), Method: PREINCUBATION); “inactive; negative” (Test System: AMES SALMONELLA TYPHIMURIUM, Strain/Indicator: TA1537, Metabolic Activation: NONE, Method: PREINCUBATION); “inactive; negative” (Test System: AMES SALMONELLA TYPHIMURIUM, Strain/Indicator: TA1537, Metabolic Activation: RAT, LIVER, S-9, AROCLOR 1254 (30%), Method: PREINCUBATION).
